Legend:
CAIX [1] = target: T1, CAIX (Homo sapiens, UniProt Q16790); assay: Stopped-flow CO2 hydration, CAIX activity before and after dialysis; assay type: biochemical; details: for CAIX catalytic activity after 32 hours of dialysis: […] CAIX incubated 2 h with 15 μM AV19-37 or 100 μM AV19-36, dialyzed in Tris buffer pH 7
Experimental: A—CAIX incubated for 2 hours with compounds and the CO2 hydration was measured. B—CAIX was incubated for 2 hours with the compound and then the complex was dialyzed for 32 hours in Tris buffer (pH 7.0). Black curves represent CAIX catalyzed CO2 hydration reaction. Grey curves are spontaneous CO2 hydration without the CA enzyme.
CO2 hydration velocities were measured by recording absorbance of phenol red (final concentration 50 μM) at 557 nm by using Applied Photophysics SX.18 MV-R stopped-flow spectrometer.

CAIX [2] = target: T1, CAIX; assay: Isothermal titration calorimetry (ITC) binding to CAIX; details: pH 7.0, TRIS chloride buffer, 37° C., FIG. 1D
Experimental: A—Raw data of CAIX unfolding in the presence of different compound concentrations. B—dependence of CAIX melting temperature Tm on ligand concentration. […] C—raw ITC curve at pH 7.0, TRIS chloride buffer, at 37° C. D—Integrated ITC curve.

CAIII = CAIII (Homo sapiens, UniProt P07451); assay: Mass spectrometry (Q-TOF) of covalent modification of CAIII; assay type: binding; details: CAIII in the presence of ligand
Sequence of CAIII (P07451 whole entry): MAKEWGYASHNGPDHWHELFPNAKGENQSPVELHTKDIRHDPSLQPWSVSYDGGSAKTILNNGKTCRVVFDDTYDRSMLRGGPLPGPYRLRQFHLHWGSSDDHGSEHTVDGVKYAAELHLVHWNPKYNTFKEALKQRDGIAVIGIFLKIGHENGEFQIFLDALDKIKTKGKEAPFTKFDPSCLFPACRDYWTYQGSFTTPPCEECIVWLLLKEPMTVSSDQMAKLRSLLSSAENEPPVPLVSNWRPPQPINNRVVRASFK

Compound	CAIX catalytic activity after 32 hours of dialysis (CAIX [1])	compound binding stoichiometry (CAIX [2])	CAIX catalytic activity after 2 hours of incubation with compound (CAIX [1]; […] CAIX, 15 μM compound, CO2 hydration, 25° C., pH 7.5)	covalent modification by MS (CAIII)
CC(=O)OCCSc1c(F)c(F)c(S(N)(=O)=O)c(F)c1F [AV19-36, 2-((2,3,5,6-tetrafluoro-4-sulfamoylphenyl)thio)ethyl acetate]	partially restored its catalytic activity			
CC(=O)OCCS(=O)(=O)c1c(F)c(F)c(S(N)(=O)=O)c(F)c1NC1CCCCCCC1 [AV19-37, 2-((2-(cyclooctylamino)-3,5,6-trifluoro-4-sulfamoylphenyl)sulfonyl)ethyl acetate]	not restored	~1	lost its catalytic activity	did not show a covalent modification

Source: patent publication US20250066291A1, “TARGETED COVALENT INHIBITORS FOR CARBONIC ANHYDRASES” (VILNIUS UNIVERSITY, priority 2023, published 2025)
